pKd: −log10 of the molar value.
Target: T1, ICAT (inhibitor of β-catenin and T-cell factor; β-catenin-interacting protein 1) (Homo sapiens, UniProt Q9NSA3)
T1 sequence (Q9NSA3 1-81): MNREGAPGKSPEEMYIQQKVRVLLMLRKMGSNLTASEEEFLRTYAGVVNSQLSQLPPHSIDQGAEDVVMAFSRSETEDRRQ
Test: MST with EGFP-ICAT in cell lysate
Format: binding

Q: How did the pKd turn out when `CC1=CC(=O)[C@@H](O)[C@]2(C)[C@H]3[C@@H](O)[C@H](O)[C@]4(C)OC[C@@]35[C@@H](C[C@@H]12)OC(=O)[C@H](O)[C@]54O` [BD, Bruceine D] was run?
A: The pKd was 4.48.

Reference: publication PMC8642446 (Acta Pharmaceutica Sinica. B, 2021)
